{"source": "ChEMBL document CHEMBL1129051", "about": "“9-Dihydroxy-2,3,7,11b-tetrahydro-1H-naph[1,2,3-de]isoquinoline: a potent full dopamine D1 agonist containing a rigid-beta-phenyldopamine pharmacophore” (J Med Chem, 1996)"}
{"biological_target": "D(2) dopamine receptor (Homo sapiens) (UniProt P14416)", "sequence (P14416 whole entry)": "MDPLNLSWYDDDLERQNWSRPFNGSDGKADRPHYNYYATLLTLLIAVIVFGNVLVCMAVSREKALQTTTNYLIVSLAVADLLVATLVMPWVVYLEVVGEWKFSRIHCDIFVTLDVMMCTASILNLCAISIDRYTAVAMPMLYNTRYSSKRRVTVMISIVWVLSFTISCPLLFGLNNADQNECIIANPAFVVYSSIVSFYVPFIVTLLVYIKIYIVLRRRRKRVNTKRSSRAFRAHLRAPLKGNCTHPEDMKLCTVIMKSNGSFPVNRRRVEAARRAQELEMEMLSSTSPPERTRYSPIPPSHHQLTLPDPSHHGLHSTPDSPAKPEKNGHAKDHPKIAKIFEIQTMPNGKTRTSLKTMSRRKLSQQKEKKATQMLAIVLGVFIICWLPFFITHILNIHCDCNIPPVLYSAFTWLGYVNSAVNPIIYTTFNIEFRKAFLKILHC", "description": "Hill slope was determined for the compound in D2 receptor binding assay"}
{"smiles": "Oc1cc2c(cc1O)[C@H]1c3ccccc3CN[C@@H]1CC2", "nH": 0.72}
{"smiles": "CN(C)CCCN1c2ccccc2Sc2ccc(Cl)cc21", "nH": 0.93}
{"biological_target": "D(1A) dopamine receptor (Homo sapiens) (UniProt P21728)", "sequence (P21728 whole entry)": "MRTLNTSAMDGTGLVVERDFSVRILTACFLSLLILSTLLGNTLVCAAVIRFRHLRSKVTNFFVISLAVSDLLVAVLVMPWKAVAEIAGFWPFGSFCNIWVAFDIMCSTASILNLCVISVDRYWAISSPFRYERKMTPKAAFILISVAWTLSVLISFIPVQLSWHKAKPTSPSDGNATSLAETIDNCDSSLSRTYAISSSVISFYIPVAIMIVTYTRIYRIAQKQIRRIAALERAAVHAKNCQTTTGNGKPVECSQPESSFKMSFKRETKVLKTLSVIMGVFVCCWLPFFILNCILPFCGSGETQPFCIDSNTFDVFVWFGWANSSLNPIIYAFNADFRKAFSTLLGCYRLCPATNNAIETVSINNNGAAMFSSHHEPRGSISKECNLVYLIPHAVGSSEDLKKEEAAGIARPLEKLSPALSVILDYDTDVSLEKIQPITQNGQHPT", "assay": "Hill slope was determined for the compound in D1 receptor binding assay"}
{"smiles": "Oc1cc2c(cc1O)[C@H]1c3ccccc3CN[C@@H]1CC2", "nH": 0.65}
{"smiles": "Oc1ccc2c(c1O)Cc1cccc3c1[C@H]2CNC3", "nH": 0.66}
{"smiles": "Oc1cc2c(cc1O)[C@@H](c1ccccc1)CNCC2", "nH": 0.75}
{"smiles": "CN1CCc2cc(Cl)c(O)cc2[C@@H](c2ccccc2)C1", "nH": 1.05}
